Literature values as cited in US8912356B2, “DCC mediated coupling for halofenate manufacture” (Metabolex, Inc., priority 2013, dated 2014).

Legend:
cytochrome P450 2C9 = cytochrome P450 2C9 (Homo sapiens, UniProt P11712); settings: relative to (+)-enantiomer of halofenic acid
[1] = administration of racemic mixture

cytochrome P450 2C9, sequence (P11712 whole entry): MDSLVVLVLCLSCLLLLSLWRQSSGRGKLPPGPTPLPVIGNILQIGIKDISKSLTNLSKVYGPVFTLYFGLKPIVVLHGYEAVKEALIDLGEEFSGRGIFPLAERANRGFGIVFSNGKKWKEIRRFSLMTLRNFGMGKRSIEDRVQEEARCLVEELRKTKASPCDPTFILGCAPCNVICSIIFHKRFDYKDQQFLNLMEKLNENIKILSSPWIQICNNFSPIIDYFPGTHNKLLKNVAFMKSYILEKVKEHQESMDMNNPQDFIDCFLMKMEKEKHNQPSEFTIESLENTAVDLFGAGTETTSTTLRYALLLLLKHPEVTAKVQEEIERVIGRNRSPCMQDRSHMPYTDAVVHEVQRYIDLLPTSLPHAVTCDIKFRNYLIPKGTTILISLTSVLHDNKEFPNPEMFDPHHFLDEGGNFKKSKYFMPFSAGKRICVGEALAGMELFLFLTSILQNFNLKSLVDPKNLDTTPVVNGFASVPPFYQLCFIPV

Row | Structure (SMILES) | ability to inhibit cytochrome P450 2C9 compared to the (+)-enantiomer (cytochrome P450 2C9) | plasma glucose [1] | serum uric acid [1] | triglycerides [1] | potential adverse drug-drug interactions (racemic halofenate, with Coumadin) | adverse effects (racemic mixture)
1 | O=C(O)[C@H](Oc1cccc(C(F)(F)F)c1)c1ccc(Cl)cc1 [(−)-enantiomer of halofenic acid, (−)-4-chloro-α-(3-trifluoromethylphenoxy)phenylacetic acid] | about twenty-fold less active | – | – | – | – | –
2 | CC(=O)NCCOC(=O)C(Oc1cccc(C(F)(F)F)c1)c1ccc(Cl)cc1 (racemic) [halofenate, 2-acetamidoethyl (4-chlorophenyl) (3-trifluoromethylphenoxy)acetate] | – | lowering | lowering | lowering | difficulties controlling anticoagulation with Coumadin™ | nausea, gastrointestinal ulcers, and gastrointestinal bleeding
